Entries after “also recorded” stand apart in the source; their conditions may differ.
Experiments:
Format in all cases: cell-based
HCC1937 cells = assay: 53BP1-mApple condensate anisotropy (homo-FRET) and intensity in HCC1937 cells; conditions: HCC1937, 1 μM PARPi and 100 μM TMZ for 1 hour
Procedure: All fluorescence imaging was performed on an Olympus FV1000 multiphoton/confocal microscope. Anisotropy measurements were performed through custom modifications to the imaging system as previously described (30). Briefly, linear polarization of two photon excitation light at 910 nm (MaiTai femtosecond laser, Spectra Physics) was controlled by a glan-thompson prism and half wave plate. […] was collected in orthogonal orientations through two detectors, parallel and perpendicular to excitation polarization, through a polarizing beam splitter that replaced a dichroic mirror in the emission filter cube. The alignment and detector gain and noise were validated each imaging session through measurements of a standard slide. Images were taken with an Olympus 25× XLPlan N objective, NA 1.05, and 3× digital zoom. Confocal imaging was performed with an Olympus XLUMPlanFL N 20× objective, NA 1.00 with chromatic correction, and 3× digital zoom.
Cells were grown on 12 mm round, uncoated, sterilized glass coverslips in 24-well plates for 24 hours. Cells were treated with PARPi and 100 μM TMZ for 1 hour or 10 nM GMX1778 overnight followed by 100 μM TMZ for 1 hour. TMZ was added to stimulate new DNA damage induced condensates in the presence of PARPi or NAD″ depletion. Cells were then transferred to the microscope for anisotropy imaging. Images were analyzed in MATLAB. Nuclei were segmented through intensity thresholding and condensates were segmented through further intensity thresholding with a higher threshold. Values of segmented nuclei and condensates were determined through the regionprops function. Segmentation was corrected through area restrictions to ensure that regions of interest were isolated condensates. The thresholding parameters were consistent throughout experiments. The average intensity and anisotropy of each segmented nuclei or condensate was then calculated. Data were plotted in Prism and analysis performed in Prism or Excel.

HT1080 cells [1] = assay: γH2AX immunofluorescence ICS DA and nuclear intensity in HT1080 cells
Procedure: (§1) Cells were plated in 8-well […] slides (Thermo or Ibidi) to achieve 50% confluence overnight. Cells were then treated and fixed with 4% paraformaldehyde in PBS at room temperature for 10 minutes. Antibody staining was performed according to the manufacturers protocol. Following fluorescent secondary antibody labeling, prolong gold with DAPI (Cell Signaling Technologies) was added and samples were stored for up to 1 week prior to imaging.
ICS analysis was performed in MATLAB as previously described (41). Briefly, nuclei were segmented from the DAPI channel with the MATLAB function, imbinarize, converting the greyscale image to a binary dependent on an automatically defined threshold. The MATLAB function, regionprops, was used to identify single nuclei as objects. Each nucleus was used as a mask to perform ICS analysis on the antibody-stained channel, within size limitations for a nucleus (objects >400 and <3000 pixels). To ensure the analysis of antibody stained nuclei, nuclei under an average intensity of 200 au after background subtraction were excluded. The spatial autocorrelation functions were calculated using Fourier methods, then fit to a 2D Gaussian using a nonlinear least-squares algorithm (41). Using the outputs of the fitting, the mean number of independent emitting fluorescent entities per focal spot area and subsequently the DA were determined (59). DA measurements across experiments were normalized by the control in each dataset. […] Any DA values exceeding 3 standard deviations from the mean were defined as incorrectly segmented and removed. Data were plotted in Prism and analysis performed in Prism or Excel.

7 cell lines = assay: γH2AX immunofluorescence DA and intensity in 7 cell lines; conditions: all cell lines, 1 μM PARPi overnight
Procedure: as §1
ICS analysis was performed in MATLAB as previously described (41). Briefly, nuclei were segmented from the DAPI channel with the MATLAB function, imbinarize, converting the greyscale image to a binary dependent on an automatically defined threshold. The MATLAB function, regionprops, was used to identify single nuclei as objects. Each nucleus was used as a mask to perform ICS analysis on the antibody-stained channel, within size limitations for a nucleus (objects >400 and <3000 pixels). To ensure the analysis of antibody stained nuclei, nuclei under an average intensity of 200 au after background subtraction were excluded. The spatial autocorrelation functions were calculated using Fourier methods, then fit to a 2D Gaussian using a nonlinear least-squares algorithm (41). Using the outputs of the fitting, the mean number of independent emitting fluorescent entities per focal spot area and subsequently the DA were determined (59). […]

HT1080 cells [2] = assay: Dose response cell viability (Presto Blue) in HT1080 cells; conditions: HT1080, 100 nM PDD00017273
Procedure: Cells were plated in a 96-well plate at 2×10^3 cells per well and treated with drug for 5 days in three replicate wells. Cell viability was then determined using Presto Blue (Thermo Fisher). Signal was averaged over 3 replicate wells and normalized to blank (no cells) as well as to the levels of untreated wells. A sigmoidal response curve was fit to the average of two experiments in Prism. PARPi z score was calculated for each PARPi using 9 cell lines. The average z score over three PARPi (veliparib, olaparib, talazoparib) was then determined as a representation of cell line PARPi sensitivity.

Compound | 53BP1-mApple condensate anisotropy vs control (HCC1937 cells) | γH2AX levels measured by intensity (HT1080 cells [1]; HT1080, 1 μM PARPi overnight) | γH2AX levels (intensity) over control (7 cell lines) | HT1080 dose response to veliparib, with vs without PDD00017273 (HT1080 cells [2]) | γH2AX DA induced by 1 μM veliparib or talazoparib, with vs without PDD00017273 (HT1080 cells [1]; HT1080, 100 nM PDD00017273 overnight)
Cn1ncnc1[C@H]1c2n[nH]c(=O)c3cc(F)cc(c23)N[C@@H]1c1ccc(F)cc1 [talazoparib] | significantly lower condensate anisotropy compared to control | high levels of γH2AX | increased γH2AX levels | – | –
PDD00017273 | – | – | – | did not impact HT1080 response to veliparib | did not alter the veliparib or talazoparib induced γH2AX DA; also recorded: no significant differences
